Entries after “also recorded” stand apart in the source; their conditions may differ. Like-named read-outs stand apart in the source and are kept apart here.
What was measured:
[1] = target: vaccinia virus DNA synthesis (viral DNA polymerase and its associated factors) (Vaccinia virus, UniProt P06856); assay type: biochemical
[2] = test system: vaccinia virus WR; test: microbe, parasite or virus in culture; assay type: cell-based; conditions: for EC50: Orthopoxvirus vaccinia
[3] = test system: vaccinia virus WR; test: microbe, parasite or virus in culture; assay type: cell-based; conditions: Orthopoxvirus vaccinia
[4] = test system: vaccinia virus WR; assay type: cell-based
[5] = Solubility in cell growth medium by light scattering; conditions: concentrations of the activity assays
Description: These 16 compounds were tested for cell protection and cytotoxicity over longer times (48 h and 72 h). […] The solubility of the 16 compounds was verified in cell growth medium over the range of concentrations used in the activity assays.

[6] = WST-1 cytotoxicity assay; conditions: African green monkey, BS-C-1 cells
[7] = test system: BS-C-1 cells; test: WST-1 cytotoxicity assay; conditions: for tox 20 h TC50 / tox 72 h TC50 / tox 120 h TC50: Table 6; for CC50: Table 4
[8] = target: vaccinia E9 polymerase (Vaccinia virus (strain Western Reserve) (VACV) (Vaccinia virus (strain WR)), UniProt P06856); assay type: biochemical
[9] = target: triad (A20, D4, E9) (Vaccinia virus (strain Western Reserve) (VACV) (Vaccinia virus (strain WR)), UniProt P06856); assay type: biochemical
[10] = target: vaccinia triad (A20, D4, E9) (Vaccinia virus (strain Western Reserve) (VACV) (Vaccinia virus (strain WR)), UniProt P06856); assay type: biochemical
[11] = test system: vaccinia virus; test: microbe, parasite or virus in culture; assay type: cell-based; conditions: Orthopoxvirus vaccinia; for inhibition at 100 µM: BSC-1, 1 h, read-out: Inhibition of plaques
[12] = test system: vaccinia virus; assay type: cell-based
[13] = test system: BSC-1 cells; conditions: 100 μM
[14] = in vitro; conditions: African green monkey
[15] = test system: vaccinia virus; test: microbe, parasite or virus in culture; conditions: Orthopoxvirus vaccinia, BSC-1, 16 h, read-out: Plaque IC50
[16] = aCella-TOX GAPDH release cytotoxicity assay (viridicatumtoxin study); conditions: African green monkey, BSC-1 cells
[17] = target: vaccinia E9 DNA polymerase (Vaccinia virus (strain Western Reserve) (VACV) (Vaccinia virus (strain WR)), UniProt P06856); test: biochemical
[18] = test system: BSC-1 cells; test: Cell viability at plaque IC50, cell counting; conditions: at plaque IC50 (1.6 μM), 24 hrs
Description: (§1) The cell viability at the plaque IC50 value was performed using two independent methods, cell counting and MTT assay. For the cell counting method, cells were incubated overnight at 37° C. to sub-confluency in 48-well plates. The compounds dissolved in DMSO, were further diluted in media to a final concentration required to achieve the plaque IC50 value. The cells were incubated with the compounds for 24 hrs. The media was removed, the cells trypsinized and stained with tryphan blue, and counted. The MTT assay was also used to confirm cell viability at the plaque IC50. Cells were seeded at 1.5×10^4 cells/well in a 96-well plate and incubated overnight at 37° C. at 5% CO2. […] Each well received 20 μL of the MTT solution (5 mg MTT/mL PBS) and the plate was rocked for 5 min. The plates were incubated for an additional 5 h to metabolize MTT, after which the media was removed, and the plates were air dried. To resuspend the formazan, the end product of the MTT assay, 200 μL of DMSO was added to each well and the plates were rocked for 5-10 min. Absorbance was read at 560 nm.

[19] = test system: BSC-1 cells; test: Cell viability at plaque IC50, MTT assay; conditions: at plaque IC50 (1.6 μM), 16 h
Description: as §1

[20] = test system: vaccinia early gene E3 mRNA; assay type: cell-based, vaccinia virus
[21] = test system: vaccinia late gene F9 mRNA; assay type: cell-based, vaccinia virus
[22] = test system: vaccinia early E3 protein; assay type: cell-based, vaccinia virus
[23] = test system: vaccinia late L1 protein; assay type: cell-based, vaccinia virus
[24] = test system: vaccinia virus; conditions: African green monkey
[25] = test system: BSC-1 cells; test: aCella-TOX GAPDH release cytotoxicity assay (viridicatumtoxin study); conditions: cells exposed to 200 μM
[26] = read-out: DNA Synthesis Inhibition IC50
[27] = 20 h, read-out: Cell Protection 20 h EC50
[28] = BSC-1, 20 h, read-out: cell prot EC50
[29] = 20 h, read-out: Plaque Reduction 20 h EC50
[30] = BSC-1, 20 h, read-out: plaque red EC50
[31] = read-out: Cytotoxicity 20 h CC50, 20 h
[32] = read-out: Cytotoxicity 120 h CC50, 120 h

SMILES | IC50 [1, 26] [µM] | IC50 ([1]; read-out: DNA synth IC50) [µM] | EC50 [2, 27] [µM] | EC50 [2, 28] [µM] | EC50 [3, 29] [µM] | EC50 [3, 30] [µM] | Effect of dsDNA [4] | trapped by dsDNA [4] | Solubility in cell growth medium [5] | tox 20 h TC50 ([7]; 20 h) [µM] | CC50 [7, 31] [µM] | Selectivity Index SI [2] | selectivity index [2] | tox 72 h TC50 ([7]; 72 h) [µM] | tox 120 h TC50 ([7]; 120 h) [µM] | also measured
CCS(=O)(=O)N1CCN=C1SCc1ccc(Cl)cc1Cl [Compound 10] | 188 | 188 | 90 | 90 | 25 | 25 | No | no | just slightly insoluble at the EC50 | 166 | 166 |  |  |  |  | CC50 at 120 h [6]: 25 µM
O=C(Nc1ccccc1C(=O)O)OCC1c2ccccc2-c2ccccc21 [Compound 9] | 26 | 26 | 104 | 104 | 75 | 75 | No | no |  | >200 | > 200 | >1.9 | >1.9 | 40 | 20 | CC50 at 72 h [6]: 30 to 50 µM; CC50 [7, 32]: 20 µM
O=C1/C(=C/C2CCCO2)CC/C1=C\C1CCCO1 (stereo not drawn) [Compound 16] | 239 | 239 | 100 | 100 | 50 | 50 | No | no | just slightly insoluble at the EC50 | >100 | > 100 | >1 | >1 | >100 | 50 | 
Oc1ccc(Cl)cc1Sc1cc(Cl)ccc1O [NSC 55636, 2,2′-thiobis(4-chlorophenol)] |  |  |  |  |  |  |  |  |  |  |  |  |  |  |  | Effect on E9 polymerase activity on the uniform template [8]: prevented E9 from incorporating nucleotides on the uniform template; also recorded: inhibited the catalytic activity of E9 DNA polymerase; also recorded: blocked polymerase activity; Targeted Activity (% Inhibition): Polymerase [8]: Polymerase (74%); Effect on DNA synthesis by the triad on the distal template [9]: also blocked the distal template; Effect on synthesis of M13 DNA [10]: blocked by increasing concentrations; inhibition at 100 µM [11]: 95%; EC50 ([11]; BSC-1, read-out: EC50 (concentration at which compound reduced plaques by 50%)): 5 µM; Blocking the replication of vaccinia virus in cells [12]: effective in blocking the replication of vaccinia virus in cells; Cell Cytotoxicity [13]: 14%; Cell Cytotoxicity ([13]; listed as 55636): 14%; CC50 [14]: > 200 µM
N=C1S/C(=C/c2ccco2)C(=O)N1c1nccs1 [Compound 12] | 32 | 32 | 80 | 80 | 75 | 75 | No | no | just slightly insoluble at the EC50 | >100 | > 100 | >1.2 | >1.2 | >100 | 50 | CC50 at 72 h [6]: > 50 µM
Cc1cc(OC(=O)c2ccco2)nc(SCc2c(Cl)cccc2Cl)n1 [Compound 8] | 52 | 52 | 100 | 100 | 75 | 75 | No | no | just slightly insoluble at the EC50 | >100 |  | >2 | >2 | >100 | >100 | CC50 at 20 h [6]: > 200 µM
O=C(O)Cn1c2ccc(Cl)cc2c2nc3ccccc3nc21 [Compound 13] |  |  | 100 | 100 | 50 | 50 | No | no | just slightly insoluble at the EC50 | >100 | > 100 |  |  | 13 | 30 | CC50 ([7]; read-out: Cytotoxicity 72 h CC50, 72 h): 13 µM; CC50 [7, 32]: 30 µM
Cc1cc(/N=C/c2cc(Cl)cc(Cl)c2O)no1 [Compound 6] | 30 | 30 | 95 | 95 | 75 | 75 | No | no |  | >200 | > 200 | >2.1 | >2.1 | 50 | 20 | CC50 at 72 h [6]: ~50 µM; CC50 [7, 32]: 20 µM
O=C1CSC(=S)N1/N=C/c1ccc(Cl)c([N+](=O)[O-])c1 [NSC 124808] |  |  |  |  |  |  |  |  |  |  |  |  |  |  |  | Effect on E9 polymerase activity on the uniform template [8]: not on the uniform template; also recorded: minimal effects; Effect on DNA synthesis by the triad on the distal template [9]: prevented DNA synthesis by the triad on the distal template; also recorded: blocked incorporation on the distal template; Targeted Activity (% Inhibition): Processivity [9]: Processivity (62%); Effect on synthesis of M13 DNA [10]: blocked by increasing concentrations; inhibition at 100 µM [11]: 36%; Cell Cytotoxicity [13]: 21%
CN(C)C1C(O)=C(C(N)=O)C(=O)C2(O)C(O)=C3C(=O)c4c(O)cccc4C(C)(O)C3CC12.CS(=O)(=O)O (stereo not drawn) [NSC 69343, 4-(dimethylamino)-3,6,10,12,12a-pentahydroxy-6-methyl-1,11-dioxo-1,4,4a,5,5a,6,11,12a-octahydrotetracene-2-carboxamide methanesulfonate, reference compound] |  |  |  |  |  |  |  |  |  |  |  |  |  |  |  | inhibition at 100 µM [11]: 40%; Blocking the replication of vaccinia virus in cells [12]: effective in blocking the replication of vaccinia virus in cells; Cell Cytotoxicity ([13]; methanesulfonate): 17%; IC50 [15]: > 200 µM; CC50 [16]: > 200 µM
COc1cc(O)c2c(O)c3c(c4c2c1[C@]1(C4)C(C)=CCCC1(C)C)[C@H](O)[C@@]1(O)CC(O)=C(C(N)=O)C(=O)[C@@]1(O)C3=O [Viridicatumtoxin, viridicatumtoxin] |  |  |  |  |  |  |  |  |  |  |  |  |  |  |  | IC50 [17]: 63 µM; % cell viability on plaque IC50, Cell count [18]: 92 ± 23%; % cell viability on plaque IC50, Cell count ([18]; listed as viridicatumtoxin): About 90%; % cell viability on plaque IC50, MTT [19]: 83 ± 16%; % cell viability on plaque IC50, MTT ([19]; listed as viridicatumtoxin): about 85%; Early E3 mRNA production [20]: maximum at 3 h.p.i. and dropped back to low levels by 5 h.p.i.; Late F9 mRNA expression [21]: only a marginal increase in F9 mRNA expression by 5 h.p.i.; Early E3 protein level [22]: no significant difference in the levels of E3; Late L1 protein level [23]: significantly decreased; Blocking the replication of vaccinia virus in cells [12]: particularly effective; Concentration at which the cells began to detach [24]: ≥ 100 µM; IC50 [15]: 1.6 µM; CC50 [16]: > 200 µM; Cytotoxicity at highest exposure [25]: not cytotoxic
